Patent publication US7276508B2, “Indole derivatives useful for the treatment of CNS disorders” (H. Lundbeck A/S, priority 2000, dated 2007)

These compounds were tested against T1, human cloned dopamine D4.2 receptors (Homo sapiens, UniProt P21917, DEL265-296) (assay: Inhibition of the binding of [3H]YM-09151-2 to human dopamine D4 receptors). Conditions: [3H]YM-09151-2 0.06 nM, membranes of CHO cells; read-out: D4-bind. IC50.
T1 construct: expressed in transfected cells; host or cells: CHO cells (membranes)
T1 sequence (P21917 with tags, fused parts or gaps DEL265-296): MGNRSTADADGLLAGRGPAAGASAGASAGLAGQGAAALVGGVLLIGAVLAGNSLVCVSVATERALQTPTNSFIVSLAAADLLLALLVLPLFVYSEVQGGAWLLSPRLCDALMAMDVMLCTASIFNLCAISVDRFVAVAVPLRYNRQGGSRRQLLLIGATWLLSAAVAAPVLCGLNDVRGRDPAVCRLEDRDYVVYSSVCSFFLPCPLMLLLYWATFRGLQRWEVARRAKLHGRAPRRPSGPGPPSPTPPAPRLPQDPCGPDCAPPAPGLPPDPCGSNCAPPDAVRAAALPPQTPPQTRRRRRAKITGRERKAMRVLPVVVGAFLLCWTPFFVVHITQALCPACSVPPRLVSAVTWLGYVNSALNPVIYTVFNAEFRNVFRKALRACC
Description: Inhibition of the Binding of [^3H]YM-09151-2 to Human Dopamine D4 Receptors
By this method, the inhibition by drugs of the binding of [^3H]YM-09151-2 (0.06 nM) to membranes of human cloned dopamine D4.2 receptors expressed in CHO-cells is determined in vitro. Method modified from NEN Life Science Products, Inc., technical data certificate PC2533-10/96.

IC50	Structure (SMILES)
0.58 nM	O=C1CCc2ccccc2N1CCCN1CCC(c2c[nH]c3ccc(F)cc23)CC1 [Compound 2a, 5-Fluoro-3-{1-[3-(2-oxo-3,4-dihydro-2H-quinolin-1-yl)propan-1-yl]piperidin-4-yl}-1H-indole]
12 nM	O=C1CCc2ccccc2N1CCCCCN1CCC(c2c[nH]c3ccc(Cl)cc23)CC1 [Compound 2e, 5-Chloro-3-{1-[5-(2-oxo-3,4-dihydro-2H-quinolin-1-yl)pentan-1-yl]piperidin-4-yl}-1H-indole]
7.5 nM	O=C1COc2ccccc2N1CCCCN1CCC(c2c[nH]c3ccc(F)cc23)CC1 [Compound 2g, 5-Fluoro-3-{1-[4-(3-oxo-3,4-dihydro-2H-1,4-benzoxazin-4-yl)butan-1-yl]piperidin-4-yl}-1H-indole]
8 nM	O=C1CCc2ccccc2N1CCCCN1CCC(c2c[nH]c3ccc(Cl)cc23)CC1 [Compound 2d, 5-Chloro-3-{1-[4-(2-oxo-3,4-dihydro-2H-quinolin-1-yl)butan-1-yl]piperidin-4-yl}-1H-indole]
10 nM	O=C1COc2ccccc2N1CCCCN1CCC(c2c[nH]c3ccc(Cl)cc23)CC1 [Compound 2h, 5-Chloro-3-{1-[4-(3-oxo-3,4-dihydro-2H-1,4-benzoxazin-4-yl)butan-1-yl]piperidin-4-yl}-1H-indole]
4.8 nM	O=C1CCc2ccccc2N1CCCCN1CCC(c2c[nH]c3ccc(F)cc23)CC1 [Compound 4, 5-Fluoro-3-{1-[4-(2-oxo-3,4-dihydro-2H-quinolin-1-yl)butan-1-yl]piperidin-4-yl}-1H-indole]
0.69 nM	O=C1CCc2ccccc2N1CCCN1CCC(c2c[nH]c3ccc(Cl)cc23)CC1 [Compound 2c, 5-Chloro-3-{1-[3-(2-oxo-3,4-dihydro-2H-quinolin-1-yl)propan-1-yl]piperidin-4-yl}-1H-indole]
12 nM	O=C1CCc2ccccc2N1CCCCCN1CCC(c2c[nH]c3ccc(F)cc23)CC1 [Compound 2b, 5-Fluoro-3-{1-[5-(2-oxo-3,4-dihydro-2H-quinolin-1-yl)pentan-1-yl]piperidin-4-yl}-1H-indole]

Structure (SMILES)	IC50
Fc1ccc2[nH]cc(C3=CCN(CCCCCN4CCCc5ccccc54)CC3)c2c1 [Compound 9n, 5-Fluoro-3-{1-[5-(3,4-dihydro-2H-quinolin-1-yl)pentan-1-yl]-3,6-dihydro-2H-pyridin-4-yl}-1H-indole]	53 nM
O=C1CCc2ccccc2N1CCCCCN1CC=C(c2c[nH]c3ccc(F)cc23)CC1 [Compound 3c, 5-Fluoro-3-{1-[5-(2-oxo-3,4-dihydro-2H-quinolin-1-yl)pentan-1-yl]-3,6-dihydro-2H-pyridin-4-yl}-1H-indole]	15 nM
O=C1CCc2ccccc2N1CCCN1CC=C(c2c[nH]c3ccc(F)cc23)CC1 [Compound 3a, 5-Fluoro-3-{1-[3-(2-oxo-3,4-dihydro-2H-quinolin-1-yl)propan-1-yl]-3,6-dihydro-2H-pyridin-4-yl}-1H-indole]	0.71 nM
Fc1ccc2[nH]cc(C3=CCN(CCCN4CCCc5ccccc54)CC3)c2c1 [Compound 9l, 5-Fluoro-3-{1-[3-(3,4-dihydro-2H-quinolin-1-yl)propan-1-yl]-3,6-dihydro-2H-pyridin-4-yl}-1H-indole]	0.51 nM
O=C1CCc2ccccc2N1CCCCN1CC=C(c2c[nH]c3ccc(F)cc23)CC1 [Compound 3b, 5-Fluoro-3-{1-[4-(2-oxo-3,4-dihydro-2H-quinolin-1-yl)butan-1-yl]-3,6-dihydro-2H-pyridin-4-yl}-1H-indole]	5 nM

Same assay, conditions: at 50 nM compound; [3H]YM-09151-2 0.06 nM, membranes of CHO cells

D4-bind. % inhibition of binding at 50 nM	Structure (SMILES)
95%	O=C1c2ccccc2CCN1CCCCN1CCC(c2c[nH]c3ccc(F)cc23)CC1 [Compound 1c]
97%	O=C1c2ccccc2CCN1CCCN1CCC(c2c[nH]c3ccc(F)cc23)CC1 [Compound 1b]
82%	O=C(CCCCN1CCC(c2c[nH]c3c(Cl)cccc23)CC1)N1CCc2ccccc2C1 [Compound 10l]

Same assay, conditions: at 50 nM compound; [3H]YM-09151-2 0.06 nM, membranes of CHO cells; read-out: D4-bind. % inhibition of binding at 50 nM

inhibition at 0.05 µM	Structure (SMILES)
69%	O=C(CCCCCN1CCC(c2c[nH]c3c(Cl)cccc23)CC1)N1CCc2ccccc2C1 [Compound 10m, 7-Chloro-3-{1-[6-(3,4-dihydro-1H-isoquinolin-2-yl)-6-oxohexan-1-yl]piperidin-4-yl}-1H-indole]
21%	O=C(CCCCCN1CCC(c2c[nH]c3cccc(F)c23)CC1)N1CCc2ccccc2C1 [Compound 10c, 4-Fluoro-3-{1-[6-(3,4-dihydro-1H-isoquinolin-2-yl)-6-oxohexan-1-yl]piperidin-4-yl}-1H-indole]
94%	O=C(CCN1CCC(c2c[nH]c3cc(Cl)ccc23)CC1)N1CCc2ccccc2C1 [Compound 10i, 6-Chloro-3-{1-[3-(3,4-dihydro-1H-isoquinolin-2-yl)-3-oxopropan-1-yl]piperidin-4-yl}-1H-indole]
86%	O=C(CCCN1CCC(c2c[nH]c3cccc(Cl)c23)CC1)N1CCc2ccccc2C1 [Compound 10d, 4-Chloro-3-{1-[4-(3,4-dihydro-1H-isoquinolin-2-yl)-4-oxobutan-1-yl]piperidin-4-yl}-1H-indole]
70%	O=C(CCCCCN1CCC(c2c[nH]c3cc(Cl)ccc23)CC1)N1CCc2ccccc2C1 [Compound 10j, 6-Chloro-3-{1-[6-(3,4-dihydro-1H-isoquinolin-2-yl)-6-oxohexan-1-yl]piperidin-4-yl}-1H-indole]
92%	O=C1CCc2ccccc2N1CCN1CCC(c2c[nH]c3ccc(F)cc23)CC1 [Compound 1a, 5-Fluoro-3-{1-[2-(2-oxo-3,4-dihydro-2H-quinolin-1-yl)ethyl]piperidin-4-yl}-1H-indole]
17%	O=C(CCCCCN1CCC(c2c[nH]c3cccc(Cl)c23)CC1)N1CCc2ccccc2C1 [Compound 10f, 4-Chloro-3-{1-[6-(3,4-dihydro-1H-isoquinolin-2-yl)-6-oxohexan-1-yl]piperidin-4-yl}-1H-indole]
93%	O=C(CCN1CCC(c2c[nH]c3cccc(F)c23)CC1)N1CCc2ccccc2C1 [Compound 10a, 4-Fluoro-3-{1-[3-(3,4-dihydro-1H-isoquinolin-2-yl)-3-oxopropan-1-yl]piperidin-4-yl}-1H-indole]
95%	O=C(CCCN1CCC(c2c[nH]c3c(Cl)cccc23)CC1)N1CCc2ccccc2C1 [Compound 10k, 7-Chloro-3-{1-[4-(3,4-dihydro-1H-isoquinolin-2-yl)-4-oxobutan-1-yl]piperidin-4-yl}-1H-indole]
50%	O=C(CCCCCN1CCC(c2c[nH]c3ccc(F)cc23)CC1)N1CCc2ccccc2C1 [Compound 10h, 5-Fluoro-3-{1-[6-(3,4-dihydro-1H-isoquinolin-2-yl)-6-oxohexan-1-yl]piperidin-4-yl}-1H-indole]
78%	O=C1CCc2ccccc2N1CCCCN1CCC(c2c[nH]c3c(Cl)cccc23)CC1 [Compound 2f, 7-Chloro-3-{1-[4-(2-oxo-3,4-dihydro-2H-quinolin-1-yl)butan-1-yl]piperidin-4-yl}-1H-indole]
65%	O=C(CCCCN1CCC(c2c[nH]c3ccc(F)cc23)CC1)N1CCc2ccccc2C1 [Compound 10g, 5-Fluoro-3-{1-[5-(3,4-dihydro-1H-isoquinolin-2-yl)-5-oxopentan-1-yl]piperidin-4-yl}-1H-indole]
25%	O=C(CCCCN1CCC(c2c[nH]c3cccc(Cl)c23)CC1)N1CCc2ccccc2C1 [Compound 10e, 4-Chloro-3-{1-[5-(3,4-dihydro-1H-isoquinolin-2-yl)-5-oxopentan-1-yl]piperidin-4-yl}-1H-indole]
